Converted amounts (≈) assume the structure as drawn. “And” between values parts separate entries of the source, which are not always exact repeats. Identical values can stand only once.
Experiments:
[1] = tested on: A. baumannii ATCC BAA747; assay: MIC by broth microdilution; type: cell-based; settings: Acinetobacter baumannii, ATCCBAA747, read-out: MIC A. baumannii ATCC BAA747
Method: (§1) MIC was determined by broth microdilution. Single-colony cultures were grown to exponential phase (OD600 of 0.5) aerobically at 37 °C. In case of strains from the Keio collection, 50 µg ml^−1 kanamycin was supplemented to the media to ascertain a homogeneous population. The bacterial suspensions were diluted 100-fold in CAMHB and 50 µl was added to a twofold serial dilution series of test compounds (50 µl per well) in polypropylene 96-well microtitre plates to reach a volume of 100 µl. The plates were sealed with breathable membranes and incubated overnight at 37 °C with constant shaking (600 r.p.m.). The MIC was determined as the lowest concentration at which no visible bacterial growth was observed as compared with the inoculum controls from the median of a minimum of triplicates.

[2] = tested on: E. coli W3110 gyrA S97L, S83L, D87N; assay: MIC against CRISPR/Cas9 gyrA point mutants; type: cell-based, Escherichia coli; settings: Escherichia coli
Method: as §1
Mutants of the DNA gyrase subunit A encoding gene (gyrA) were constructed following the protocol for gene editing via the CRISPR–Cas9 system. Strains and plasmids used are listed in Supplementary Table 15, and primers used can be found in Supplementary Table 16. The following mutations were created: S97L in E. coli W3110. Two common mutations in the gyrA gene that give resistance to fluoroquinolone antibiotics were created in E. coli W3110, namely S83L and D87N. To create the gyrA (S97L) mutants, the construct psgRNA-gyrA-M5 was assembled as follows: The 20-nt spacer sequence was introduced by PCR on pTargetF using primers gyrA_P11 and gyrA_P12, the homology-directed repair (HDR) arms were amplified from E. coli W3110 genomic DNA by PCR using primer pairs gyrA_P05 and gyrA_P013, and gyrA_P08 and gyrA_P14. The three PCR fragments generated were cloned into the SpeI and BglII digested pTargetF via Gibson assembly. To avoid off-target effects of CRISPR, besides desired point mutation for gyrA (S97L), four other silent point mutations were also included in the HDR template. Consequently, the amino acid sequence of gyrA will remain the same in the generated mutant except for the desired mutation. Similarly, constructs psgRNA-gyrA-S83L and psgRNA-gyrA-D87N were created to introduce mutations S83L and D87N in gyrA, respectively. In psgRNA-gyrA-S83L, spacer sequence was introduced using primers gyrA_P12 and gyrA_P17, HDR template was amplified using primer pairs gyrA_P05 and gyrA_P18, and gyrA_P08 and gyrA_P19. In psgRNA-gyrA-D87N, spacer sequence was introduced using primers gyrA_P12 and gyrA_P20, HDR template was amplified using primer pairs gyrA_P05 and gyrA_P21, and gyrA_P08 and gyrA_P22. The verified constructs for gyrA engineering were transformed into E. coli W3110 carrying pCas9, and plated in LB containing kanamycin (50 µg ml^−1) for the selection of the pCas9 plasmid and spectinomycin (100 µg ml^−1) for the selection of psgRNA-gyrA-X. The plates were incubated at 30 °C. Plasmids were cured by growing the strains with 0.5 mM isopropylthiogalactoside with no antibiotics to lose first the psgRNA-gyrA plasmids. After losing the spectinomycin resistance, the strain was grown in LB with no antibiotics at 42 °C to lose the pCas plasmid. Colony PCR was performed on plasmid-free colonies using primers gyrA_P9 and gyrA_P10, and PCR products were sequenced to confirm the desired mutation

[3] = tested on: 60-resistant (60-r) isolates of E. coli W3110; assay: microbe, parasite or virus in culture; type: cell-based, Escherichia coli; settings: Escherichia coli
Method: as §1
The plates were incubated at 37 °C and checked for growth after 24 and 48 h. […] Nine colonies with an increased MIC were selected for further analysis and stored as glycerol stocks.

[4] = tested on: HEK293T; assay: Cytotoxicity assay (MTT); type: cell-based, human; settings: for MTT data (raw readout): HEK293T; for IC50: 24 h, MTT
Summary of the method: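 HEK293T cells, maintained at 37 °C and 7% CO2 in Dulbecco’s modified Eagle medium with GlutaMax, antibiotics and serum, were plated in clear 96-well plates in 100 µl medium containing 1% fetal bovine serum and left 24 h to attach. After 24 h compound exposure, MTT (0.40 mg ml^−1) was added for 2 h. Formazan was dissolved in 100 µl DMSO and absorbance measured at 570 nm. Background-corrected IC50 values came from variable-slope non-linear fits.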

[5] = tested on: HepG2; assay: Cytotoxicity assay (MTT); type: cell-based, human; settings: for IC50: MTT, 24 h

## O=C(O)c1cn(C2CC2)c2cc(N3CCNCC3)c(F)cc2c1=O [CIP, ciprofloxacin]
[1]
  MIC: 0.755 µM (≈ 0.25 µg/mL)
[2]; E. coli W3110 gyrA D87N (FQ-resistant 2)
  MIC: > 1.5 µM
[2]; E. coli W3110 gyrA S83L (FQ-resistant 1)
  MIC: > 1.5 µM
[2]; E. coli W3110 gyrA S97L (LEI-800-resistant)
  MIC: 0.024 µM (≈ 0.00795 µg/mL)
[3]; E. coli W3110 60-r1
  MIC: 0.024 µM and 0.0078 µg/mL
[3]; E. coli W3110 60-r3
  MIC: 0.024 µM and 0.0078 µg/mL
[3]; E. coli W3110 60-r6
  MIC: 0.024 µM and 0.0078 µg/mL

## O=S(=O)(NC[C@H]1CC[C@@H](c2ccc(-c3ccc(F)nc3)cc2)N1)c1cccc2cnccc12 [LEI-801]
[4]; 0.023 uM, experiment n = 1, technical triplicates, listed as LEI-801 (99)
  MTT data (raw readout): 1.090 and 1.041 and 1.057
[4]; 0.023 uM, experiment n = 2, technical triplicates, listed as LEI-801 (99)
  MTT data (raw readout): 0.858 and 0.977 and 0.938
[4]; 0.068 uM, experiment n = 1, technical triplicates, listed as LEI-801 (99)
  MTT data (raw readout): 1.154 and 1.082 and 1.072
[4]; 0.068 uM, experiment n = 2, technical triplicates, listed as LEI-801 (99)
  MTT data (raw readout): 1.027 and 1.034 and 1.015
[4]; 0.21 uM, experiment n = 1, technical triplicates, listed as LEI-801 (99)
  MTT data (raw readout): 1.127 and 1.121 and 1.094
[4]; 0.21 uM, experiment n = 2, technical triplicates, listed as LEI-801 (99)
  MTT data (raw readout): 0.913 and 0.892 and 0.944
[4]; 0.62 uM, experiment n = 1, technical triplicates, listed as LEI-801 (99)
  MTT data (raw readout): 1.141 and 1.092 and 0.930
[4]; 0.62 uM, experiment n = 2, technical triplicates, listed as LEI-801 (99)
  MTT data (raw readout): 1.083 and 0.946 and 1.064
[4]; 1.85 uM, experiment n = 1, technical triplicates, listed as LEI-801 (99)
  MTT data (raw readout): 1.167 and 1.005 and 0.915
[4]; 5.6 uM, experiment n = 1, technical triplicates, listed as LEI-801 (99)
  MTT data (raw readout): 0.937 and 1.019 and 1.040
[4]; 5.6 uM, experiment n = 2, technical triplicates, listed as LEI-801 (99)
  MTT data (raw readout): 1.075 and 0.764 and 0.931
[4]; 16.7 uM, experiment n = 1, technical triplicates, listed as LEI-801 (99)
  MTT data (raw readout): 0.838 and 0.818 and 0.874
[4]; 16.7 uM, experiment n = 2, technical triplicates, listed as LEI-801 (99)
  MTT data (raw readout): 0.745 and 0.746 and 0.735
[4]; 50 uM, experiment n = 1, technical triplicates, listed as LEI-801 (99)
  MTT data (raw readout): 0.494 and 0.473 and 0.487
[4]; 50 uM, experiment n = 2, technical triplicates, listed as LEI-801 (99)
  MTT data (raw readout): 0.506 and 0.491 and 0.495
[4]; Homo sapiens, HEK-293T
  IC50: 51 µM
[4]; listed as LEI-801 (99)
  IC50: > 50 µM
[5]; HepG2, 0.023 uM, experiment n = 1, technical triplicates, listed as LEI-801 (99)
  MTT data (raw readout): 0.358 and 0.291 and 0.289
[5]; HepG2, 0.023 uM, experiment n = 2, technical triplicates, listed as LEI-801 (99)
  MTT data (raw readout): 0.296 and 0.284 and 0.274
[5]; HepG2, 0.068 uM, experiment n = 1, technical triplicates, listed as LEI-801 (99)
  MTT data (raw readout): 0.356 and 0.307 and 0.313
[5]; HepG2, 0.068 uM, experiment n = 2, technical triplicates, listed as LEI-801 (99)
  MTT data (raw readout): 0.301 and 0.287 and 0.260
[5]; HepG2, 0.21 uM, experiment n = 1, technical triplicates, listed as LEI-801 (99)
  MTT data (raw readout): 0.330 and 0.315 and 0.323
[5]; HepG2, 0.21 uM, experiment n = 2, technical triplicates, listed as LEI-801 (99)
  MTT data (raw readout): 0.350 and 0.289 and 0.265
[5]; HepG2, 0.62 uM, experiment n = 1, technical triplicates, listed as LEI-801 (99)
  MTT data (raw readout): 0.417 and 0.319 and 0.320
[5]; HepG2, 0.62 uM, experiment n = 2, technical triplicates, listed as LEI-801 (99)
  MTT data (raw readout): 0.301 and 0.282 and 0.253
[5]; HepG2, 1.85 uM, experiment n = 1, technical triplicates, listed as LEI-801 (99)
  MTT data (raw readout): 0.361 and 0.335 and 0.354
[5]; HepG2, 1.85 uM, experiment n = 2, technical triplicates, listed as LEI-801 (99)
  MTT data (raw readout): 0.263 and 0.269 and 0.244
[5]; HepG2, 5.6 uM, experiment n = 1, technical triplicates, listed as LEI-801 (99)
  MTT data (raw readout): 0.370 and 0.351 and 0.360
[5]; HepG2, 5.6 uM, experiment n = 2, technical triplicates, listed as LEI-801 (99)
  MTT data (raw readout): 0.293 and 0.267 and 0.296
[5]; HepG2, 16.7 uM, experiment n = 1, technical triplicates, listed as LEI-801 (99)
  MTT data (raw readout): 0.376 and 0.357 and 0.431
[5]; HepG2, 16.7 uM, experiment n = 2, technical triplicates, listed as LEI-801 (99)
  MTT data (raw readout): 0.300 and 0.252 and 0.259
[5]; HepG2, 50 uM, experiment n = 1, technical triplicates, listed as LEI-801 (99)
  MTT data (raw readout): 0.327 and 0.318 and 0.307
[5]; HepG2, 50 uM, experiment n = 2, technical triplicates, listed as LEI-801 (99)
  MTT data (raw readout): 0.232 and 0.220 and 0.225
[5]; Homo sapiens, HepG2, 24 h
  IC50: > 100 µM
[5]; listed as LEI-801 (99)
  IC50: > 50 µM

Reference: paper PMC11374673, “Discovery of isoquinoline sulfonamides as allosteric gyrase inhibitors with activity against fluoroquinolone-resistant bacteria” (Nature Chemistry, 2024)
